PMC8632988, “Inhibition of SYK and cSrc kinases can protect bone and cartilage in preclinical models of osteoarthritis and rheumatoid arthritis” (Scientific Reports, 2021)
Several values for one entry are separate records, joined by “and”; a condition that tells them apart may be missing. Equal values may be shown once.

Test system: DBA/1 mice, CIA model
Assay: Collagen-induced arthritis model in mice
Type: in vivo, mouse
Settings: QD
Description: Collagen-induced arthritis (CIA) model was performed at Bolder BioPATH, USA. Study design and animal usage was approved by Bolder BioPATH’s Institutional Animal Care and Use Committee. CIA was induced in 6–7 week old male DBA/1 mice with body weight of 15–26 g (Harlan, Inc) by intradermal injection of Freund’s Complete Adjuvant (Difco) containing bovine type II collagen (Bolder BioPATH) on day 0 and again on day 21 according to the standard protocol. […] After that mice were randomized into six groups: a control group of four, vehicle group and four treatment groups of ten mice each. […] Each paw was scored daily for inflammation. Therapeutic and prophylactic paws were considered. At study termination mice were euthanized by CO2 inhalation followed by cervical dislocation. Fore paws, hind paws, and knees were removed for microscopy.
Mice were weighed on arthritis days 1, 3, 5, 7, 9, and 11 (prior to necropsy). Daily clinical scores were given for each of the paws (right front, left front, right rear, left rear) on days 1–11 using the following criteria:
After 1–2 days in fixative and 4–5 days in 5% formic acid for decalcification, tissues were trimmed, processed for paraffin embedding, sectioned at 8 µm and stained with toluidine blue. Hind paws and knees were embedded and sectioned in the frontal plane. Two joints from each animal were processed for histopathology evaluation. The joints were then scored by two independent readers as indicated below. When scoring, severity of changes as well as number of individual joints affected were considered. When only 1–3 joints of the paws or ankles out of a possibility of numerous metacarpal/metatarsal/digit or tarsal/tibiotarsal joints were affected, an arbitrary assignment of a maximum score of 1, 2 or 3 for parameters below was given depending on severity of changes. If more than 3 joints were involved, the criteria below were applied to the most severely affected/majority of joints.

In the case of `CN(Cc1cnc2nc(N)nc(N)c2n1)c1ccc(C(=O)N[C@@H](CCC(=O)O)C(=O)O)cc1` [MTX, methotrexate, reference compound], the “% inhibition to Vehicle, Paw Score Total AUC Sum (d1-11)” value (1.5 mg/kg PO) was 12%, the “Paw Score Total AUC Sum (d1-11)” value (1.5 mg/kg PO, group Mean) was 28.46 and the “Paw Score Total AUC Sum (d1-11)” value (1.5 mg/kg PO, individual animals) was 19.25 and 28.75 and 18.25 and 23.38 and 30.63 and 34.25 and 31.00 and 24.88 and 33.25 and 41.00. The “% inhibition to Vehicle, Average Paw Score” value (Day 1, 1.5 mg/kg PO) was 0%, the “Average Paw Score Per Arthritis Day (All Paws)” value (Day 1, 1.5 mg/kg PO, group Mean) was 0.80 and the “Average Paw Score Per Arthritis Day (All Paws)” value (Day 1, 1.5 mg/kg PO, individual animals, 1.5 mg/kg) was 0.50 and 1.00 and 1.50. For the same compound, the “% inhibition to Vehicle, Average Paw Score” value (Day 2, 1.5 mg/kg PO) was 19%, the “Average Paw Score Per Arthritis Day (All Paws)” value (Day 2, 1.5 mg/kg PO, group Mean) was 1.48 and the “Average Paw Score Per Arthritis Day (All Paws)” value (Day 2, 1.5 mg/kg PO, individual animals, 1.5 mg/kg) was 0.50 and 1.25 and 1.50 and 1.00 and 2.00 and 1.75 and 2.50. The “% inhibition to Vehicle, Average Paw Score” value (Day 3, 1.5 mg/kg PO) was 20%, the “Average Paw Score Per Arthritis Day (All Paws)” value (Day 3, 1.5 mg/kg PO, group Mean) was 2.13 and the “Average Paw Score Per Arthritis Day (All Paws)” value (Day 3, 1.5 mg/kg PO, individual animals, 1.5 mg/kg) was 0.75 and 1.75 and 2.00 and 2.50 and 2.75 and 3.00. For the same compound, the “% inhibition to Vehicle, Average Paw Score” value (Day 4, 1.5 mg/kg PO) was 10%, the “Average Paw Score Per Arthritis Day (All Paws)” value (Day 4, 1.5 mg/kg PO, group Mean) was 2.85 and the “Average Paw Score Per Arthritis Day (All Paws)” value (Day 4, 1.5 mg/kg PO, individual animals, 1.5 mg/kg) was 1.75 and 3.00 and 2.00 and 2.25 and 2.50 and 2.75 and 4.00. The “% inhibition to Vehicle, Average Paw Score” value (Day 5, 1.5 mg/kg PO) was 9%, the “Average Paw Score Per Arthritis Day (All Paws)” value (Day 5, 1.5 mg/kg PO, group Mean) was 3.15 and the “Average Paw Score Per Arthritis Day (All Paws)” value (Day 5, 1.5 mg/kg PO, individual animals, 1.5 mg/kg) was 2.25 and 2.00 and 4.00 and 2.75 and 4.75. For the same compound, the “% inhibition to Vehicle, Average Paw Score” value (Day 6, 1.5 mg/kg PO) was 11%, the “Average Paw Score Per Arthritis Day (All Paws)” value (Day 6, 1.5 mg/kg PO, individual animals, 1.5 mg/kg) was 2.50 and 2.00 and 2.25 and 4.00 and 2.75 and 4.75 and the “% inhibition to Vehicle, Average Paw Score” value (Day 7, 1.5 mg/kg PO) was 12%. For the same compound, the “Average Paw Score Per Arthritis Day (All Paws)” value (Day 7, 1.5 mg/kg PO, individual animals, 1.5 mg/kg) was 2.50 and 2.00 and 2.25 and 4.00 and 2.75 and 4.75, the “% inhibition to Vehicle, Average Paw Score” value (Day 8, 1.5 mg/kg PO) was 13% and the “Average Paw Score Per Arthritis Day (All Paws)” value (Day 8, 1.5 mg/kg PO, individual animals, 1.5 mg/kg) was 2.50 and 2.00 and 3.75 and 4.00 and 2.75 and 4.75. For the same compound, the “% inhibition to Vehicle, Average Paw Score” value (Day 9, 1.5 mg/kg PO) was 13%, the “Average Paw Score Per Arthritis Day (All Paws)” value (Day 9, 1.5 mg/kg PO, individual animals, 1.5 mg/kg) was 2.50 and 2.00 and 3.00 and 4.00 and 4.25 and 2.75 and 3.75 and 5.00 and the “% inhibition to Vehicle, Average Paw Score” value (Day 10, 1.5 mg/kg PO) was 12%. The “Average Paw Score Per Arthritis Day (All Paws)” value (Day 10, 1.5 mg/kg PO, individual animals, 1.5 mg/kg) was 2.50 and 2.00 and 4.75 and 4.50 and 2.75 and 4.00 and 5.00, the “% inhibition to Vehicle, Average Paw Score” value (Day 11, 1.5 mg/kg PO) was 12% and the “Average Paw Score Per Arthritis Day (All Paws)” value (Day 11, 1.5 mg/kg PO, individual animals, 1.5 mg/kg) was 2.50 and 2.00 and 4.75 and 4.50 and 2.75 and 4.00 and 5.00. The “% inhibition to Vehicle, Total AUC Sum (d1-11)” value (MTX 1.5 mg/kg PO) was 21%, the “Summed Prophylactic (Non-Enrollment) Paw Score” value (MTX 1.5 mg/kg PO, Day 1, group mean) was 0.00 and the “Summed Prophylactic (Non-Enrollment) Paw Score” value (MTX 1.5 mg/kg PO, Day 1, individual animals) was 0. The “% inhibition to Vehicle, Summed Prophylactic (Non-Enrollment) Paw Score” value (“% inhibition … (Non-Enrollment) Paw Score” for short) (MTX 1.5 mg/kg PO, Day 2) was 38%, the “Summed Prophylactic (Non-Enrollment) Paw Score” value (MTX 1.5 mg/kg PO, Day 2, group mean) was 1.60 and the “Summed Prophylactic (Non-Enrollment) Paw Score” value (MTX 1.5 mg/kg PO, Day 2, individual animals) was 0 and 2 and 1 and 5 and 4. The “% inhibition … (Non-Enrollment) Paw Score” value (MTX 1.5 mg/kg PO, Day 3) was 30%, the “Summed Prophylactic (Non-Enrollment) Paw Score” value (MTX 1.5 mg/kg PO, Day 3, group mean) was 3.30 and the “Summed Prophylactic (Non-Enrollment) Paw Score” value (MTX 1.5 mg/kg PO, Day 3, individual animals) was 0 and 3 and 1 and 4 and 7 and 8 and 5 and 2. For the same compound, the “% inhibition … (Non-Enrollment) Paw Score” value (MTX 1.5 mg/kg PO, Day 4) was 20%, the “Summed Prophylactic (Non-Enrollment) Paw Score” value (MTX 1.5 mg/kg PO, Day 4, group mean) was 5.10 and the “Summed Prophylactic (Non-Enrollment) Paw Score” value (MTX 1.5 mg/kg PO, Day 4, individual animals) was 3 and 4 and 1 and 6 and 10. The “% inhibition … (Non-Enrollment) Paw Score” value (MTX 1.5 mg/kg PO, Day 5) was 19%, the “Summed Prophylactic (Non-Enrollment) Paw Score” value (MTX 1.5 mg/kg PO, Day 5, group mean) was 5.90 and the “Summed Prophylactic (Non-Enrollment) Paw Score” value (MTX 1.5 mg/kg PO, Day 5, individual animals) was 5 and 4 and 1 and 9 and 12 and 10 and 6. The “% inhibition … (Non-Enrollment) Paw Score” value (MTX 1.5 mg/kg PO, Day 6) was 21%, the “Summed Prophylactic (Non-Enrollment) Paw Score” value (MTX 1.5 mg/kg PO, Day 6, group mean) was 6.00 and the “Summed Prophylactic (Non-Enrollment) Paw Score” value (MTX 1.5 mg/kg PO, Day 6, individual animals) was 6 and 4 and 1 and 9 and 12 and 10. The “% inhibition … (Non-Enrollment) Paw Score” value (MTX 1.5 mg/kg PO, Day 7) was 22%, the “Summed Prophylactic (Non-Enrollment) Paw Score” value (MTX 1.5 mg/kg PO, Day 7, group mean) was 6.10 and the “Summed Prophylactic (Non-Enrollment) Paw Score” value (MTX 1.5 mg/kg PO, Day 7, individual animals) was 6 and 5 and 4 and 1 and 9 and 12 and 10. For the same compound, the “% inhibition … (Non-Enrollment) Paw Score” value (MTX 1.5 mg/kg PO, Day 8) was 22%, the “Summed Prophylactic (Non-Enrollment) Paw Score” value (MTX 1.5 mg/kg PO, Day 8, group mean) was 6.30 and the “Summed Prophylactic (Non-Enrollment) Paw Score” value (MTX 1.5 mg/kg PO, Day 8, individual animals) was 6 and 5 and 4 and 2 and 10 and 12. For the same compound, the “% inhibition … (Non-Enrollment) Paw Score” value (MTX 1.5 mg/kg PO, Day 9) was 20%, the “Summed Prophylactic (Non-Enrollment) Paw Score” value (MTX 1.5 mg/kg PO, Day 9, group mean) was 6.80 and the “Summed Prophylactic (Non-Enrollment) Paw Score” value (MTX 1.5 mg/kg PO, Day 9, individual animals) was 6 and 5 and 4 and 3 and 11 and 13 and 10 and 7. For the same compound, the “% inhibition … (Non-Enrollment) Paw Score” value (MTX 1.5 mg/kg PO, Day 10) was 16%, the “Summed Prophylactic (Non-Enrollment) Paw Score” value (MTX 1.5 mg/kg PO, Day 10, group mean) was 7.40 and the “Summed Prophylactic (Non-Enrollment) Paw Score” value (MTX 1.5 mg/kg PO, Day 10, individual animals) was 6 and 5 and 4 and 14 and 10 and 8. The “% inhibition … (Non-Enrollment) Paw Score” value (MTX 1.5 mg/kg PO, Day 11) was 16%.
